Measurements reported in US5013549A, “Production, isolation, and identification of novel antifungal compounds” (priority 1990, dated 1991).
Values after ≈ are worked out from the molar mass of the structure shown. “Also recorded” adds a separate entry of the source. Where two headings read alike, the source gives them in different places.

Experiments:
murine tumors = settings: more active than adriamycin; cited from earlier work
fungi = settings: known related compounds; cited from earlier work
[1] = cited from earlier work
Aspergillus fumigatus = experiment: Minimum inhibitory concentration, Aspergillus fumigatus; format: cell-based
Procedure: (§1) Known amounts of the purified substance were dissolved in DMSO and serial dilutions prepared in the same solvent. A 20 ul volume of each dilution was placed on the surface of Emmon's agar in petri-dishes seeded with various test strains of pathogenic and saprophytic fungi. The antibacterial activity was monitored using Muller-Hilton agar. The minimum inhibitory concentration (MIC) was determined by incorporating known amount of the DMSO dissolved purified substance into Emmon's liquid medium (same as stated earlier but devoid of agar) contained in test tubes. The tubes were inoculated with ca 2×10^3 CFU of the test organisms. The inoculated tubes were incubated at 26° C. and the results recorded after two to 5 days depending upon the growth pattern of the test organisms (certain fungi grow faster than others). Tubes inoculated in an identical manner but devoid of the active substance served as controls.

A. niger = experiment: Minimum inhibitory concentration, A. niger; format: cell-based; settings: Aspergillus niger; 26° C., 2 to 5 days, Emmon's liquid medium; fungus
Procedure: as §1

A. flavus = experiment: Minimum inhibitory concentration, A. flavus; format: cell-based; settings: Aspergillus flavus; 26° C., 2 to 5 days, Emmon's liquid medium; fungus
Procedure: as §1

Penicillium species = experiment: Minimum inhibitory concentration, Penicillium species; format: cell-based; settings: 26° C., 2 to 5 days, Emmon's liquid medium, fungus
Procedure: as §1

Cladosporium species = experiment: Minimum inhibitory concentration, Cladosporium species; format: cell-based; settings: 26° C., 2 to 5 days, Emmon's liquid medium, fungus
Procedure: as §1

Candida albicans = experiment: Minimum inhibitory concentration, Candida albicans; format: cell-based; settings: 26° C., 2 to 5 days, Emmon's liquid medium, fungus
Procedure: as §1

C. quilliermondii = experiment: Minimum inhibitory concentration, C. quilliermondii; format: cell-based
Procedure: as §1

[2] = system: Cryptococcus neoformans-N-2; experiment: Minimum inhibitory concentration, Cryptococcus neoformans-N-2; format: cell-based; settings: N = encapsulated, mucoid strain with neurotropic tendencies, 26° C., 2 to 5 days
Procedure: as §1

C. neoformans- N-3 = experiment: Minimum inhibitory concentration, C. neoformans- N-3; format: cell-based; settings: Cryptococcus neoformans; N = encapsulated, mucoid strain with neurotropic tendencies; 26° C., 2 to 5 days
Procedure: as §1

C. neoformans- G-3 = experiment: Minimum inhibitory concentration, C. neoformans- G-3; format: cell-based; settings: Cryptococcus neoformans
Procedure: as §1

C. neoformans serotype-C = experiment: Minimum inhibitory concentration, C. neoformans serotype-C; format: cell-based; settings: Cryptococcus neoformans
Procedure: as §1

C.neoformans serotype-D = experiment: Minimum inhibitory concentration, C.neoformans serotype-D; format: cell-based; settings: Cryptococcus neoformans, 26° C., 2 to 5 days
Procedure: as §1

Rhodotorula rubra = experiment: Minimum inhibitory concentration, Rhodotorula rubra; format: cell-based
Procedure: as §1

R. glutinis = experiment: Minimum inhibitory concentration, R. glutinis; format: cell-based; settings: Rhodotorula glutinis
Procedure: as §1

Citrobacter species = experiment: Minimum inhibitory concentration, Citrobacter species; format: cell-based; settings: bacterial strain
Procedure: as §1

Pseudomonas aeruginosa = experiment: Minimum inhibitory concentration, Pseudomonas aeruginosa; format: cell-based; settings: bacterial strain
Procedure: as §1

Plebsiella pneumoniae = experiment: Minimum inhibitory concentration, Plebsiella pneumoniae; format: cell-based
Procedure: as §1

Escherichia coli = experiment: Minimum inhibitory concentration, Escherichia coli; format: cell-based; settings: bacterial strain
Procedure: as §1

[3] = system: Staphylococcus aureus ATCC 29213; experiment: Minimum inhibitory concentration, Staphylococcus aureus ATCC 29213; format: cell-based; settings: bacterial strain ATCC 29213
Procedure: as §1

S. aureus ATCC 25923 = experiment: Minimum inhibitory concentration, S. aureus ATCC 25923; format: cell-based, Staphylococcus aureus; settings: bacterial strain ATCC 25923
Procedure: as §1

[4] = system: S. aureus (multiple drug resistant); experiment: Minimum inhibitory concentration, S. aureus (multiple drug resistant); format: cell-based, Staphylococcus aureus; settings: bacterial strain
Procedure: as §1

Solubility = format: physicochemical
Stability in 2N HCl = format: physicochemical

For `CCN[C@H]1CO[C@@H](O[C@H]2[C@H](O[C@H]3C#C/C=C\C#C[C@]4(O)CC(=O)C(NC(=O)OC)=C3/C4=C\CSSSC)O[C@H](C)[C@@H](NO[C@H]3C[C@H](O)[C@H](SC(=O)c4c(C)c(I)c(O[C@@H]5O[C@@H](C)[C@H](O)[C@@H](OC)[C@H]5O)c(OC)c4OC)[C@@H](C)O3)[C@@H]2O)C[C@@H]1OC` [Calicheamicin], which “activity relative to adriamycin against murine tumors” value (murine tumors) is on record?
The value was “approximately 1000 -fold”.

Which results are given for `CCC1(O)CC(OC2CC(N(C)C)C(OC3CC(O)C(OC4CCC(=O)C(C)O4)C(C)O3)C(C)O2)c2c(cc3c(c2O)C(=O)c2c(O)ccc(O)c2C3=O)C1C(=O)OC` (stereo not drawn) [cinerubin A]?
antifungal properties (fungi): not significantly antifungal; solubility of known cinerubins ([1]; in ethanol): soluble; solubility of known cinerubins ([1]; in methanol): soluble

Which antifungal properties (fungi) does the source give for `CC[C@@]1(O)C[C@H](O[C@H]2C[C@H](N(C)C)[C@H](O[C@H]3C[C@@H]4O[C@H]5CC(=O)[C@H](C)O[C@H]5O[C@@H]4[C@H](C)O3)[C@H](C)O2)c2c(cc3c(c2O)C(=O)c2c(O)ccc(O)c2C3=O)[C@H]1C(=O)OC` [cinerubin B] here?
Its antifungal properties is “not significantly antifungal”.

And the “solubility of known cinerubins” value ([1]; in ethanol)?
The value was “soluble”.

What about the “solubility of known cinerubins” value ([1]; in methanol) of the same compound?
Its value is “soluble”.

With `CCC1(O)CC(OC2CC(N(C)C)C(OC3CC(O)C(OC4CCC(=O)C(C)O4)C(C)O3)C(C)O2)c2c(cc3c(c2O)C(=O)c2c(O)ccc(O)c2C3=O)C1C(=O)OC` (stereo not drawn) [spartanamicin B] as the compound, how does the MIC (Aspergillus fumigatus) read?
Its MIC is 0.4 µg/mL (≈ 0.483 µM).

And the MIC (A. niger)?
Its MIC is 0.6 µg/mL (≈ 0.725 µM).

What about the MIC (A. flavus) of the same compound?
The MIC was 0.6 µg/mL (≈ 0.725 µM).

And the MIC (Penicillium species)?
The MIC was 0.2 µg/mL (≈ 0.242 µM).

What about the MIC (Cladosporium species) of the same compound?
The MIC was 0.4 µg/mL (≈ 0.483 µM).

And the MIC (Candida albicans)?
The MIC was 0.2 µg/mL (≈ 0.242 µM).

What about the MIC (C. quilliermondii) of the same compound?
Its MIC is 0.8 µg/mL (≈ 0.966 µM).

What about the MIC [2] of the same compound?
Its MIC is 0.8 µg/mL (≈ 0.966 µM).

And the MIC (C. neoformans- N-3)?
Its MIC is 0.6 µg/mL (≈ 0.725 µM).

And the MIC (C. neoformans- G-3)?
The MIC was 1 µg/mL (≈ 1.21 µM).

What about the MIC (C. neoformans serotype-C) of the same compound?
The MIC was 0.8 µg/mL (≈ 0.966 µM).

And the MIC (C.neoformans serotype-D)?
The MIC was 0.8 µg/mL (≈ 0.966 µM).

And the MIC (Rhodotorula rubra)?
Its MIC is 0.8 µg/mL (≈ 0.966 µM).

And the MIC (R. glutinis)?
The MIC was 0.4 µg/mL (≈ 0.483 µM).

What about the MIC (Citrobacter species) of the same compound?
Its MIC is “not active”.

And the MIC (Pseudomonas aeruginosa)?
Its MIC is 100 µg/mL (≈ 121 µM).

What about the MIC (Plebsiella pneumoniae) of the same compound?
The MIC was 100 µg/mL (≈ 121 µM).

And the MIC (Escherichia coli)?
Its MIC is “not active”.

And the MIC [3]?
The MIC was 0.8 µg/mL (≈ 0.966 µM).

And the MIC (S. aureus ATCC 25923)?
Its MIC is 0.8 µg/mL (≈ 0.966 µM).

And the MIC [4]?
The MIC was “not active”.

What about the Solubility (Solubility; in 1-butanol) of the same compound?
Its Solubility is “Sparingly soluble”.

What about the Solubility (Solubility; in 2N HCl) of the same compound?
The Solubility was “Insoluble”.

And the Solubility (Solubility; in N,N-dimethyl formamide (DMF))?
The Solubility was “Soluble”.

What about the Solubility (Solubility; in acetone) of the same compound?
The Solubility was “Soluble”.

What about the Solubility (Solubility; in acetonitrile) of the same compound?
Its Solubility is “Sparingly soluble”.

And the Solubility (Solubility; in carbon tetrachloride)?
The Solubility was “Soluble”.

What about the Solubility (Solubility; in chloroform) of the same compound?
Its Solubility is “Soluble”.

And the Solubility (Solubility; in cyclohexane)?
The Solubility was “Insoluble”.

What about the Solubility (Solubility; in dimethyl sulfoxide (DMSO)) of the same compound?
Its Solubility is “Soluble”.

And the Solubility (Solubility; in ethanol)?
Its Solubility is “not soluble; also recorded: Sparingly soluble”.

What about the Solubility (Solubility; in ethyl acetate) of the same compound?
Its Solubility is “Soluble”.

And the Solubility (Solubility; in glacial acetic acid)?
Its Solubility is “Soluble”.

And the Solubility (Solubility; in hexane)?
The Solubility was “Insoluble”.

What about the Solubility (Solubility; in methanol) of the same compound?
The Solubility was “not soluble; also recorded: Sparingly soluble”.

And the Solubility (Solubility; in toluene)?
Its Solubility is “Soluble”.

What about the Solubility (Solubility; in water) of the same compound?
The Solubility was “Insoluble”.

What about the “stability upon standing in 2N HCl” value (Stability in 2N HCl) of the same compound?
The value was “hydrolyses”.
